This note sets out measurements from US10954214B2 (Janssen Pharmaceutica NV, priority 2016, dated 2021).

The target in assay [1] is full-length MALT1 protein (Strep-MALT1(1-824)-His) (Homo sapiens (Human), UniProt Q9UDY8). Kind of assay: MALT1 Biochemical Protease Assay (Ac-LRSR-AMC substrate). The following applies: 10 nM FL MALT1, 200 μM Ac-LRSR-AMC, 4 h at RT; read-out: MALT1_Biochemical activity (Ac-LRSR-amc) IC50. On the procedure: The tetrapeptide LRSR is coupled to AMC (7-amino-4-methylcoumarin) and provides a quenched, fluorescent substrate for the MALT1 protease (SM Biochemicals). […] Test compound concentrations ranged from 30 μM to 0.5 nM using 11 dilution steps (1:3). Background signal was measured from control wells containing assay buffer without enzyme which functions as low control (LC). High control (HC) values were generated using the reaction with enzyme but no compound treatment. Compounds were pre-incubated with MALT1 enzyme for 50 minutes at RT. […] The reaction was subsequently incubated for 4 h at RT and fluorescence was measured.
LC=Median of the low control values
An estimate of the slope of the plot in terms of the Hill coefficient was also obtained. IC50 Calculation:
[formula] With • UB=upper bound • LB=lower bound Used in “Lexis Dose Response Curve Fitting” Version 1.0.

Assay [2] has as its system IL6 secretion by TMD8 ABC-DLBCL cells. The assay can be described thus: Human IL6 Mesoscale assay (TMD-8). It counts as cell-based. The following applies: Homo sapiens, TMD8; TMD-8 cells, 24 h. On the procedure:
(§1) NFKB signaling regulates the secretion of multiple cytokines, including IL6 and IL10. Secretion of the cytokines IL6 and IL10 by TMD8 or OCI-LY3 ABC-DLBCL cells was measured using a mesoscale assay. Inhibition of NFKB signaling by MALT1 or BTK inhibitors results in a decrease of IL6/10 secretion.
(§2) TMD8 or OCI-LY3 cells were propagated in RPMI-1640 (Sigma Aldrich) supplemented with 10% fetal bovine serum (HyClone), 1 mM sodium pyruvate (Invitrogen), 2 mM L-glutamine (Sigma Aldrich) and 1% PenStrep (Sigma Aldrich). Cell passage number should not exceed 30. Cells should be kept between 0.5-2.5 million cells per mL during culturing and cells should be supplemented every 2-3 days with fresh 50 μM beta-mercaptoenthanol. No beta-mercaptoethanol was used during the mesoscale assay.
(§3) For the Mesoscale assay, 100,000 TMD8 or OCI-LY3 cells were seeded per well into black-colored 96-well plates with clear bottom (Corning #3904) and test compounds were added in 9 dilution steps (1:2) ranging from 15 μM to 58.6 nM (final DMSO concentration 0.3%). DMSO control wells were used to determine the maximum signal (High Control (HC)). Treatment with the BTK inhibitor RN486 in a dose range from 30 nM to 131 pM (9 dilutions of 1:2) served as a positive control for NFKB pathway inhibition and was used to determine the maximum inhibition (Low Control (LC)). Compounds and cells were incubated for 24 h at 37° C. and 5% CO2 (assay volume is 150 μL). After 24 h of incubation 50 μL of the supernatant was transferred to a MSD plate (V-Plex Proinflammation Panel 1 (human) kit, Mesoscale (MSD)) and incubated for 2 h with vigorous shaking (600 rpm) at room temperature. Following incubation, plates were washed 3× with PBS+0.05% Tween-20 and 25 μL detection antibody solution (IL6 & IL10 antibodies in diluent 3 (MSD)) was added per well followed by 2 h of incubation with vigorous shaking (600 rpm) at room temperature. After 3× washes with PBS+0.05% Tween-20, plates were incubated with 150 μL 2× Read Buffer T and read on SECTOR imager.

Assay [3] deals with IL10 secretion by TMD8 ABC-DLBCL cells. The assay can be described thus: Human IL10 Mesoscale assay (TMD-8). It counts as cell-based. The following applies: Homo sapiens, TMD8; TMD-8 cells, 24 h. On the procedure: as §1, §2, §3

pIC50: −log10 of the molar value.

Chain of full-length MALT1 protein (Strep-MALT1(1-824)-His) (Q9UDY8 whole entry): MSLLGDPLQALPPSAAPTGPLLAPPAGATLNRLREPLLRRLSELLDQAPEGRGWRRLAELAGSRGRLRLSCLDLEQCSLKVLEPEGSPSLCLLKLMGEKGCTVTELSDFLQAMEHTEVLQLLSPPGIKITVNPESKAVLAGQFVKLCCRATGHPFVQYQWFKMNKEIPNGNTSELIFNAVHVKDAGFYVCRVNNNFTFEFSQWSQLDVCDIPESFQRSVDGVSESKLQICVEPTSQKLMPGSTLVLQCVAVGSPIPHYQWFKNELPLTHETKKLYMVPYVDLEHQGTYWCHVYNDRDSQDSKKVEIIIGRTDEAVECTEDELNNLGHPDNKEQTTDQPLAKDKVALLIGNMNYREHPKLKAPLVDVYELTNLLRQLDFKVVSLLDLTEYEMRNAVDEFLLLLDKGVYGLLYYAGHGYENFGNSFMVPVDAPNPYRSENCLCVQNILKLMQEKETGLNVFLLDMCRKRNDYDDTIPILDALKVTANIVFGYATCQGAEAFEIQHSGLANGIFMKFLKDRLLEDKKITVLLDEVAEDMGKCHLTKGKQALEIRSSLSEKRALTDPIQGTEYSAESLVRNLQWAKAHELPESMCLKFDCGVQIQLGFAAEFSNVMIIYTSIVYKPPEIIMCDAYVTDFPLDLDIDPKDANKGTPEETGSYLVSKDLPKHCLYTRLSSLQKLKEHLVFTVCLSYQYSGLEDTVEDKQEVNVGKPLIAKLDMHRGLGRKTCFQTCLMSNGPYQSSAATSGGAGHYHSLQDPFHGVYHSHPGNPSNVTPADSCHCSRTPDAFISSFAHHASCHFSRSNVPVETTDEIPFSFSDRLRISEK

Consider `O=C(Nc1cnc(-n2nccn2)c(Cl)c1)c1cnn(-c2cnc([C@@H]3CCCO3)c3ccccc23)c1C(F)(F)F` (single isomer, unassigned) [Cpd 437, (*S)—N-(5-chloro-6-(2H-1,2,3-triazol-2-yl)pyridin-3-yl)-1-(1-(tetrahydrofuran-2-yl)isoquinolin-4-yl)-5-(trifluoromethyl)-1H-pyrazole-4-carboxamide], for which the results for the pIC50 in assay [1], in assay [2] and in assay [3] were 5.75, 5.12 and 5.60, respectively. Regarding `O=C1CO[C@@H](c2ncc(-n3ncc(C(=O)Nc4cnc(-n5nccn5)c(Cl)c4)c3C(F)(F)F)c3ccccc23)C1` (single isomer, unassigned) [Cpd 438, (*R)—N-(5-chloro-6-(2H-1,2,3-triazol-2-yl)pyridin-3-yl)-1-(1-(4-oxotetrahydrofuran-2-yl)isoquinolin-4-yl)-5-(trifluoromethyl)-1H-pyrazole-4-carboxamide], the pIC50 is 7.15 in assay [1], 5.18 in assay [2] and 5.67 in assay [3]. Consider `O=C1CO[C@H](c2ncc(-n3ncc(C(=O)Nc4cnc(-n5nccn5)c(Cl)c4)c3C(F)(F)F)c3ccccc23)C1` (single isomer, unassigned) [Cpd 439, (*S)—N-(5-chloro-6-(2H-1,2,3-triazol-2-yl)pyridin-3-yl)-1-(1-(4-oxotetrahydrofuran-2-yl)isoquinolin-4-yl)-5-(trifluoromethyl)-1H-pyrazole-4-carboxamide], for which the pIC50 in assay [1] is 6.75; in assay [2], 5.37; in assay [3], 6.00. Take `O=C(Nc1ccc(-n2cccn2)c(Cl)c1)c1cnn(-c2cccc3ccncc23)c1C(F)(F)F` [Cpd 12, N-(3-chloro-4-(1H-pyrazol-1-yl)phenyl)-1-(isoquinolin-8-yl)-5-(trifluoromethyl)-1H-pyrazole-4-carboxamide]: the pIC50 in assay [1] is 5.39.

Regarding `N#Cc1ncc(NC(=O)c2cnn(-c3cccc4ccncc34)c2C(F)(F)F)cc1C(F)(F)F` [Cpd 13, N-(6-cyano-5-(trifluoromethyl)pyridin-3-yl)-1-(isoquinolin-8-yl)-5-(trifluoromethyl)-1H-pyrazole-4-carboxamide], the pIC50 in assay [1] is 5.22. For `Nc1nccc(-c2ccc(NC(=O)c3cnn(-c4cccc5ccncc45)c3C(F)(F)F)cc2Cl)n1` [Cpd 14, N-(4-(2-aminopyrimidin-4-yl)-3-chlorophenyl)-1-(isoquinolin-8-yl)-5-(trifluoromethyl)-1H-pyrazole], the pIC50 in assay [1] was 5.34. Take `O=C(Nc1cnc(-n2cccn2)c(Cl)c1)c1cnn(-c2cccc3ccncc23)c1C(F)(F)F` [Cpd 15, N-(5-chloro-6-(1H-pyrazol-1-yl)pyridin-3-yl)-1-(isoquinolin-8-yl)-5-(trifluoromethyl)-1H-pyrazole-4-carboxamide]: the pIC50 in assay [1] was 5.38.

For `O=C(Nc1cnc(N2CCCS2(=O)=O)c(Cl)c1)c1cnn(-c2cccc3ccncc23)c1C(F)(F)F` [Cpd 20, N-(5-chloro-6-(1,1-dioxidoisothiazolidin-2-yl)pyridin-3-yl)-1-(isoquinolin-8-yl)-5-(trifluoromethyl)-1H-pyrazole-4-carboxamide], in assay [1], the pIC50 is 5.02. For `Cc1ncn(-c2ccc(NC(=O)c3cnn(-c4cccc5ccncc45)c3C(F)(F)F)cc2Cl)n1` [Cpd 29, N-(3-chloro-4-(3-methyl-1H-1,2,4-triazol-1-yl)phenyl)-1-(isoquinolin-8-yl)-5-(trifluoromethyl)-1H-pyrazole-4-carboxamide], the pIC50 in assay [1] was 5.61. As for `Cc1ncn(-c2ncc(NC(=O)c3cnn(-c4cccc5ccncc45)c3C(F)(F)F)cc2Cl)n1` [Cpd 30, N-(5-chloro-6-(3-methyl-1H-1,2,4-triazol-1-yl)pyridin-3-yl)-1-(isoquinolin-8-yl)-5-(trifluoromethyl)-1H-pyrazole-4-carboxamide], the pIC50 in assay [1] was 5.30. On to `Cc1ncnn1-c1ccc(NC(=O)c2cnn(-c3cccc4ccncc34)c2C(F)(F)F)cc1Cl` [Cpd 31, N-(3-chloro-4-(5-methyl-1H-1,2,4-triazol-1-yl)phenyl)-1-(isoquinolin-8-yl)-5-(trifluoromethyl)-1H-pyrazole-4-carboxamide], for which the pIC50 in assay [1] is 5.05. Turning to `Cc1ccc2c(-n3ncc(C(=O)Nc4cnc(-n5nccn5)c(Cl)c4)c3C(F)(F)F)cccc2n1` [Cpd 37, N-(5-Chloro-6-(2H-1,2,3-triazol-2-yl)pyridin-3-yl)-1-(2-methylquinolin-5-yl)-5-(trifluoromethyl)-1H-pyrazole-4-carboxamide], in assay [1], the pIC50 is 5.84. Regarding `COC(=O)c1ncc(NC(=O)c2ncc(NC(=O)c3cnn(-c4cncc5ccccc45)c3C(F)(F)F)cc2Cl)cc1Cl` [Cpd 44, Methyl 3-chloro-5-(3-chloro-5-(1-(isoquinolin-4-yl)-5-(trifluoromethyl)-1H-pyrazole-4-carboxamido)picolinamido)picolinate], in assay [1], the pIC50 was 7.08. On the same count and under the same terms, to `O=C(Nc1cnc(-n2nccn2)c(Cl)c1)c1cnn(-c2cccc3ncccc23)c1` [Cpd 60, N-(5-chloro-6-(2H-1,2,3-triazol-2-yl)pyridin-3-yl)-1-(quinolin-5-yl)-1H-pyrazole-4-carboxamide] belongs 4.94; to `Cc1c(C(=O)Nc2cnc(-n3nccn3)c(Cl)c2)cnn1-c1ccnc2ccccc12` [Cpd 64, N-(5-chloro-6-(2H-1,2,3-triazol-2-yl)pyridin-3-yl)-5-methyl-1-(quinolin-4-yl)-1H-pyrazole-4-carboxamide], 5.94; to `O=C(Nc1cnc(-n2nccn2)c(Cl)c1)c1cnn(-c2cc3ncccc3cc2F)c1C(F)(F)F` [Cpd 67, N-(5-Chloro-6-(2H-1,2,3-triazol-2-yl)pyridin-3-yl)-1-(6-fluoroquinolin-7-yl)-5-(trifluoromethyl)-1H-pyrazole-4-carboxamide], 5.69. In the case of `O=C(Nc1ccc(-n2nccn2)nc1)c1cnn(-c2cncc3ccccc23)c1C(F)(F)F` [Cpd 71, N-(6-(2H-1,2,3-triazol-2-yl)pyridin-3-yl)-1-(isoquinolin-4-yl)-5-(trifluoromethyl)-1H-pyrazole-4-carboxamide], the pIC50 in assay [1] is 5.80. In the case of `O=C(Nc1cnc(-n2nccn2)c(Cl)c1)c1cnn(-c2cncc3ccccc23)c1` [Cpd 76, N-(5-chloro-6-(2H-1,2,3-triazol-2-yl)pyridin-3-yl)-1-(isoquinolin-4-yl)-1H-pyrazole-4-carboxamide], the pIC50 in assay [1] was 5.08. In the case of `N#Cc1cc(NC(=O)c2cnn(-c3cncc4ccccc34)c2C(F)(F)F)ccn1` [Cpd 77, N-(2-cyanopyridin-4-yl)-1-(isoquinolin-4-yl)-5-(trifluoromethyl)-1H-pyrazole-4-carboxamide], the pIC50 in assay [1] is 6.38. For `CN1CCC(Oc2ncc(NC(=O)c3cnn(-c4cncc5ccccc45)c3C(F)(F)F)cc2C#N)CC1` [Cpd 80, N-(5-cyano-6-((1-methylpiperidin-4-yl)oxy)pyridin-3-yl)-1-(isoquinolin-4-yl)-5-(trifluoromethyl)-1H-pyrazole-4-carboxamide], in assay [1], the pIC50 was 6.14.

For `N#Cc1cc(NC(=O)c2cnn(-c3cncc4ccccc34)c2C(F)(F)F)cnc1C(=O)N1CCN(CCCCN)CC1` [Cpd 101, N-(6-(4-(4-aminobutyl)piperazine-1-carbonyl)-5-cyanopyridin-3-yl)-1-(isoquinolin-4-yl)-5-(trifluoromethyl)-1H-pyrazole-4-carboxamide], the negative logarithm of the IC50 (pIC50) in assay [1] is 5.57. For `O=C(Nc1ccnc(C(F)(F)F)c1)c1cnn(-c2cccc3c(=O)[nH]ccc23)c1C(F)(F)F` [Cpd 158, 1-(1-oxo-1,2-dihydroisoquinolin-5-yl)-5-(trifluoromethyl)-N-(2-(trifluoromethyl)pyridin-4-yl)-1H-pyrazole-4-carboxamide], the values for the pIC50 in assay [2] and in assay [3] were under 5.82 and 6.42, respectively.

Turning to “N-(3-chloro-4-(1H-1,2,3-triazol-1-yl)phenyl)-1-(isoquinolin-4-yl)-5-(trifluoromethyl)-1H-pyrazole-4-carboxamide [Cpd 18]”, the pIC50 in assay [1] was 5.64.
